Data: PubChem BioAssay AID270 (DTP/NCI, 2004)
Where “and” joins values, the source holds several entries; their conditions need not be identical. Equal entries are not always repeated. Results filed as inconclusive are left out.

System: BDF1 mice, s.c. Lewis lung carcinoma, T/C %
Assay: NCI In Vivo Anticancer Drug Screen. Data for tumor model Lewis Lung Carcinoma (subcutaneous) in B6D2F1 (BDF1) mice
How it was run: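 Transplanted tumors grown in mice; compound vs vehicle dosing; endpoint survival or tumor size; ratio T/C.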

[1] = endpoint: median survival time, dose: 100.0 mg/kg/injection, schedule: Q01DX009 (ip), vehicle: saline with Tween-80, higher = longer survival
[2] = endpoint: median tumor weight (est.), dose: 100.0 mg/kg/injection, schedule: Q01DX009 (ip), vehicle: saline with Tween-80, higher = larger tumour

O=c1[nH]c(=O)n(C2CC(O)C(CO)O2)cc1F (stereo not given)
T/C (endpoint: mean tumor weight, dose: 10.0 mg/kg/injection, schedule: Q01DX011 (ip), vehicle: saline, higher = larger tumour): 82 % of control
T/C (endpoint: mean tumor weight, dose: 20.0 mg/kg/injection, schedule: Q01DX011 (ip), vehicle: saline, higher = larger tumour): 57 % of control
T/C (endpoint: mean tumor weight, dose: 26.0 mg/kg/injection, schedule: Q01DX011 (ip), vehicle: saline, higher = larger tumour): 45 % of control
T/C (endpoint: mean tumor weight, dose: 40.0 mg/kg/injection, schedule: Q01DX011 (ip), vehicle: other, higher = larger tumour): 17 % of control and 23 % of control
T/C (endpoint: mean tumor weight, dose: 40.0 mg/kg/injection, schedule: Q01DX011 (ip), vehicle: saline, higher = larger tumour): 25 % of control and 27 % of control
T/C (endpoint: mean tumor weight, dose: 60.0 mg/kg/injection, schedule: Q01DX011 (ip), vehicle: saline, higher = larger tumour): 17 % of control and 23 % of control
T/C (endpoint: mean tumor weight, dose: 80.0 mg/kg/injection, schedule: Q01DX011 (ip), vehicle: other, higher = larger tumour): 10 % of control
T/C (endpoint: mean tumor weight, dose: 80.0 mg/kg/injection, schedule: Q01DX011 (ip), vehicle: saline, higher = larger tumour): 18 % of control
T/C (endpoint: mean tumor weight, dose: 120.0 mg/kg/injection, schedule: Q01DX011 (ip), vehicle: saline, higher = larger tumour): 1 % of control
T/C (endpoint: mean tumor weight, dose: 160.0 mg/kg/injection, schedule: Q01DX011 (ip), vehicle: other, higher = larger tumour): 4 % of control
T/C (endpoint: median survival time, dose: 25.0 mg/kg/injection, schedule: Q01DX009 (ip), vehicle: saline, higher = longer survival): 90 % of control and 110 % of control and 114 % of control
T/C (endpoint: median survival time, dose: 36.0 mg/kg/injection, schedule: Q01DX011 (ip), vehicle: saline, higher = longer survival): 116 % of control
T/C (endpoint: median survival time, dose: 50.0 mg/kg/injection, schedule: Q01DX009 (ip), vehicle: saline with Tween-80, higher = longer survival): 116 % of control
T/C (endpoint: median survival time, dose: 50.0 mg/kg/injection, schedule: Q01DX009 (ip), vehicle: saline, higher = longer survival): 92 % of control and 98 % of control
T/C (endpoint: median survival time, dose: 80.0 mg/kg/injection, schedule: Q01DX011 (ip), vehicle: saline, higher = longer survival): 104 % of control
T/C [1]: 95 % of control
T/C (endpoint: median survival time, dose: 119.0 mg/kg/injection, schedule: Q01DX011 (ip), vehicle: saline, higher = longer survival): 94 % of control
T/C (endpoint: median tumor weight (est.), dose: 25.0 mg/kg/injection, schedule: Q01DX009 (ip), vehicle: saline with Tween-80, higher = larger tumour): 72 % of control
T/C (endpoint: median tumor weight (est.), dose: 50.0 mg/kg/injection, schedule: Q01DX009 (ip), vehicle: saline with Tween-80, higher = larger tumour): 66 % of control
T/C [2]: 32 % of control

C[C@]12CCC(=O)C=C1CC[C@@H]1[C@@H]2[C@@H](O)C[C@@]2(C)[C@H]1CC[C@]2(O)C(=O)CF
T/C (endpoint: mean tumor weight, dose: 3.13 mg/kg/injection, schedule: Q01DX011 (sc), vehicle: steriod suspending solution, higher = larger tumour): 70 % of control
T/C (endpoint: mean tumor weight, dose: 6.25 mg/kg/injection, schedule: Q01DX011 (sc), vehicle: steriod suspending solution, higher = larger tumour): 68 % of control
T/C (endpoint: mean tumor weight, dose: 12.5 mg/kg/injection, schedule: Q01DX011 (sc), vehicle: steriod suspending solution, higher = larger tumour): 65 % of control
T/C (endpoint: mean tumor weight, dose: 25.0 mg/kg/injection, schedule: Q01DX011 (sc), vehicle: steriod suspending solution, higher = larger tumour): 33 % of control

Nc1n[nH]c(N)n1
T/C [1]: 113 % of control
T/C (endpoint: median survival time, dose: 200.0 mg/kg/injection, schedule: Q01DX009 (ip), vehicle: saline with Tween-80, higher = longer survival): 102 % of control
T/C (endpoint: median survival time, dose: 400.0 mg/kg/injection, schedule: Q01DX009 (ip), vehicle: saline with Tween-80, higher = longer survival): 95 % of control
T/C (endpoint: median survival time, dose: 800.0 mg/kg/injection, schedule: Q01DX009 (ip), vehicle: saline with Tween-80, higher = longer survival): 110 % of control
T/C [2]: 100 % of control
T/C (endpoint: median tumor weight (est.), dose: 200.0 mg/kg/injection, schedule: Q01DX009 (ip), vehicle: saline with Tween-80, higher = larger tumour): 103 % of control
T/C (endpoint: median tumor weight (est.), dose: 400.0 mg/kg/injection, schedule: Q01DX009 (ip), vehicle: saline with Tween-80, higher = larger tumour): 97 % of control
T/C (endpoint: median tumor weight (est.), dose: 800.0 mg/kg/injection, schedule: Q01DX009 (ip), vehicle: saline with Tween-80, higher = larger tumour): 91 % of control

O=C(O)C1CCCCN1 (stereo not given)
T/C (endpoint: mean tumor weight, dose: 133.0 mg/kg/injection, schedule: Q01DX011 (ip), vehicle: other, higher = larger tumour): 110 % of control
T/C (endpoint: mean tumor weight, dose: 300.0 mg/kg/injection, schedule: Q01DX011 (ip), vehicle: other, higher = larger tumour): 123 % of control
T/C (endpoint: mean tumor weight, dose: 450.0 mg/kg/injection, schedule: Q01DX011 (ip), vehicle: other, higher = larger tumour): 116 % of control

C=C1C(=O)O[C@@H]2/C=C(/C)[C@@]3(O)C=C[C@](C)(C[C@@H](OC(=O)/C(=C\C)COC(C)=O)[C@@H]12)O3
T/C (endpoint: median survival time, dose: 0.03 mg/kg/injection, schedule: Q01DX009 (ip), vehicle: carboxymethylcellulose (CMC), higher = longer survival): 100 % of control
T/C (endpoint: median survival time, dose: 0.06 mg/kg/injection, schedule: Q01DX009 (ip), vehicle: carboxymethylcellulose (CMC), higher = longer survival): 94 % of control
T/C (endpoint: median survival time, dose: 0.12 mg/kg/injection, schedule: Q01DX009 (ip), vehicle: carboxymethylcellulose (CMC), higher = longer survival): 113 % of control
T/C (endpoint: median survival time, dose: 0.25 mg/kg/injection, schedule: Q01DX009 (ip), vehicle: carboxymethylcellulose (CMC), higher = longer survival): 87 % of control
T/C (endpoint: median survival time, dose: 0.5 mg/kg/injection, schedule: Q01DX009 (ip), vehicle: carboxymethylcellulose (CMC), higher = longer survival): 100 % of control
